From patent US9956204B2, “Composition for exterminating scuticociliates in fish including mebendazole” (NATIONAL INSTITUTE OF FISHERIES SCIENCE, priority 2016, dated 2018)

What was measured:
[1] = within 24~48 hours; cited from earlier work
scuticociliates [2] = assay: Scuticociliates extermination effect of candidate substances in seawater medium; format: cell-based; conditions: seawater medium; for Survival or Death of scuticociliates (activity and shape, microscope): 4 hour
Procedure: For this, scuticociliates were cultured in CHSE-214 cell line (using MEM medium), and then scuticociliates were collected and centrifuged with sterilized seawater or artificial seawater (20‰) to replace them with a seawater medium. Each of 100 μl (1×10^5) was dispensed into each well of 96 wells, followed by further culture for 30 minutes. The candidate substances diluted in seawater to have a volume of 100 μl per each concentration were mixed with scuticociliates to have the final volume of 200 μl and cultured for 4 hour.

scuticociliates [3] = assay: Field test of Mebendazole for exterminating scuticociliates in olive flounder farms; format: in vivo
From the text: The pharmaceutical efficacy was investigated after administering Mebendazole once daily for 5˜7 days to the olive flounder which are infected with scuticociliates in three major domestic olive flounder aquaculture area (Jeju, Wando, Pohang). First, the natural scuticociliates infection rate of each olive flounder farm was investigated, and the efficacy was investigated after administering Mebendazole accordingly. [table]

[4] = Safety test according to field test: blood chemistry in Wando, Pohang and Jeju farms; conditions: field application concentration range
Procedure: (§1) Mebendazole was orally or immersing administered at a concentration of 100 or 500 mg/kg BW (ppm) to the olive flounder once for 1 hour. After 6 hours, 1 day, 2 days, 7 days and 14 days, a blood chemistry analysis and an immunological analysis were conducted.
(§2) The blood chemistry analysis was conducted using Fuji-Dri Chem 4500 (Fuji company, Japan) to measure hemoglobin (Hb), hematocrit (Ht), glucose (GLU), total protein (TP), total cholesterol (TCHO), GOT/GPT and lactic acid (LDH), etc.

scuticociliates [5] = assay: Scuticociliates extermination effect of candidate substances in MEM medium; format: cell-based; conditions: MEM medium
Procedure: CHSE-214 cell line into which scuticociliates were inoculated was cultured in advance. The CHSE-214 cell line was cultured in an incubator using an MEM medium at 22° C. Scuticociliates inoculated into the cell line proliferated for 3 days by which the number reaches to be capable of analyzing in vitro anti-scuticociliates effect. Scuticociliates that feed on the cell line and sufficiently grow were mixed with the candidate substance and the activity of scuticociliates was measured.
In order to analyze the antiparasitic activity of the above 19 types of candidate substances of scuticociliates extermination drugs, scuticociliates were cultured for 3 days, and 100 μl (1×10^5) was dispensed into each well of 96 wells. The candidate substances were diluted by each concentration and the final volume was dispensed into 100 μl. Thereafter, the two were mixed and finally made into 200 μl.

lysozyme = conditions: in vivo
Procedure: as §1
The immunological analysis was conducted to measure the lysozyme activity of the kidney, spleen and serum (Lange et al., 2001, Parry, R. M. Chandau, R. C. & Shahani, R. M. (1965). A rapid and sensitive assay of muramidase. Proceedings of the Society for Experimental Biology Medicine 119, 384-386). In brief explanation, 100 μl of the prepared plasma was diluted with PBS (pH 6.2) in 2-fold to 4 steps on a 96-well plate and 100 μg of Micrococcus lysodekiticus (Sigma, USA) liquid diluted with PBS (pH 6.2) to 0.4 mg/ml was added to each well. After that, absorbance at 590 nm was measured every 0, 15, 30, 45 and 60 minutes. One unit of lysozyme activity was converted into the amount of a sample that decreases the absorbance 0.001/min.

[6] = in vivo
Procedure: as §1, §2

scuticociliates [7] = assay: Clinical trial: cumulative mortality of olive flounder artificially infected with scuticociliates; format: in vivo; conditions: observed for 15 days
Procedure: For the artificial infection, 1×10^5 of scuticociliates per fish were intraperitoneally injected into a total of […] juvenile olive flounder (average 10 cm). The experiment was performed by dividing them into 5 groups of every 20 fish per each experiment.

Compound	Survival or Death of scuticociliates (activity and shape, microscope) (scuticociliates [2]; Dosage 10 ppm)	Survival or Death of scuticociliates (activity and shape, microscope) (scuticociliates [2]; Dosage 50 ppm)	Survival or Death of scuticociliates (activity and shape, microscope) (scuticociliates [2]; Dosage 100 ppm)	Survival or Death of scuticociliates (activity and shape, microscope) (scuticociliates [2]; Dosage 200 ppm)	Survival or Death of scuticociliates (activity and shape, microscope) (scuticociliates [2]; Dosage 300 ppm)	Survival or Death of scuticociliates (activity and shape, microscope) (scuticociliates [2]; Dosage 400 ppm)	Survival or Death of scuticociliates (activity and shape, microscope) (scuticociliates [2]; Dosage 500 ppm)	Survival or Death of scuticociliates (activity and shape, microscope) (scuticociliates [2]; Dosage 600 ppm)	Survival or Death of scuticociliates (activity and shape, microscope) (scuticociliates [2]; Dosage 700 ppm)	Survival or Death of scuticociliates (activity and shape, microscope) (scuticociliates [2]; Dosage 800 ppm)	Survival or Death of scuticociliates (activity and shape, microscope) (scuticociliates [2]; Dosage 900 ppm)	Survival or Death of scuticociliates (activity and shape, microscope) (scuticociliates [2]; Dosage 1000 ppm)	Survival or Death of scuticociliates (activity and shape, microscope) (scuticociliates [5]; Dosage 10 ppm)	Survival or Death of scuticociliates (activity and shape, microscope) (scuticociliates [5]; Dosage 50 ppm)	Survival or Death of scuticociliates (activity and shape, microscope) (scuticociliates [5]; Dosage 100 ppm)	Survival or Death of scuticociliates (activity and shape, microscope) (scuticociliates [5]; Dosage 200 ppm)	Survival or Death of scuticociliates (activity and shape, microscope) (scuticociliates [5]; Dosage 300 ppm)	Survival or Death of scuticociliates (activity and shape, microscope) (scuticociliates [5]; Dosage 400 ppm)	Survival or Death of scuticociliates (activity and shape, microscope) (scuticociliates [5]; Dosage 500 ppm)	Survival or Death of scuticociliates (activity and shape, microscope) (scuticociliates [5]; Dosage 600 ppm)	also measured
COC(=O)Nc1nc2ccc(C(=O)c3ccccc3)cc2[nH]1 [Mebendazole]	Survival	Survival	Death	Death	Death	Death	Death	Death	Death	Death	Death	Death	Survival	Survival	Death	Death	Death	Death	Death	Death	oral dose excreted in the urine [1]: 10%; killing of scuticociliates compared with the 19 candidate substances (scuticociliates [2]): most effectively kills scuticociliates; infection of scuticociliates after administration (scuticociliates [3]; Juju farm, once daily for 5 days, infection rate before 50%): no infection of scuticociliates was detected; infection of scuticociliates after administration (scuticociliates [3]; Pohang farm, once daily for 7 days, infection rate before 70%): no infection of scuticociliates was detected; infection of scuticociliates after administration (scuticociliates [3]; Wando farm, once daily for 7 days, infection rate before 70%): no infection of scuticociliates was detected; liver index (GOT and GPT) of infected fish after administration [4]: lowered to the normal range; killing of scuticociliates compared with the 19 candidate substances (scuticociliates [5]): effect of killing scuticociliates at the lowest concentration; Survival or Death of scuticociliates (activity and shape, microscope) (scuticociliates [5]; Dosage 700 ppm): Death; Survival or Death of scuticociliates (activity and shape, microscope) (scuticociliates [5]; Dosage 800 ppm): Death; Survival or Death of scuticociliates (activity and shape, microscope) (scuticociliates [5]; Dosage 900 ppm): Death; Survival or Death of scuticociliates (activity and shape, microscope) (scuticociliates [5]; Dosage 1000 ppm): Death; effect on activity of lysozyme in serum, spleen, kidney (lysozyme): does not affect the activity of lysozyme; MCHC numerical values [6]: did not show any significant differences; concentration of Hb in the blood [6]: slightly increases; cumulative mortality rate (scuticociliates [7]; immersion administration 100 ppm for 1 hour): remarkably decreased; cumulative mortality rate (scuticociliates [7]; oral administration once, feed with 200 ppm): remarkably decreased
CCCSc1ccc2nc(NC(=O)OC)[nH]c2c1 [Albendazole]	Survival	Survival	Survival	Survival	Survival	Survival	Survival	Survival	Survival	Δ	Death	Death	Survival	Survival	Survival	Survival	Survival	Survival	Survival	Survival	Survival or Death of scuticociliates (activity and shape, microscope) (scuticociliates [5]; Dosage 700 ppm): Survival; Survival or Death of scuticociliates (activity and shape, microscope) (scuticociliates [5]; Dosage 800 ppm): Δ; Survival or Death of scuticociliates (activity and shape, microscope) (scuticociliates [5]; Dosage 900 ppm): Death; Survival or Death of scuticociliates (activity and shape, microscope) (scuticociliates [5]; Dosage 1000 ppm): Death
